This passage reports EC50 results from patent publication US20220056019A1, “FARNESOID X RECEPTOR AGONISTS AND USES THEREOF” (Metacrine, Inc., priority 2018, published 2022).

Some results are limits rather than exact numbers.

The target of the test is T1, hFXR (Homo sapiens, UniProt Q96RI1).
T1 construct: expressed in transfected cells; host or cells: CV-1 cells
T1 sequence (Q96RI1 1-486): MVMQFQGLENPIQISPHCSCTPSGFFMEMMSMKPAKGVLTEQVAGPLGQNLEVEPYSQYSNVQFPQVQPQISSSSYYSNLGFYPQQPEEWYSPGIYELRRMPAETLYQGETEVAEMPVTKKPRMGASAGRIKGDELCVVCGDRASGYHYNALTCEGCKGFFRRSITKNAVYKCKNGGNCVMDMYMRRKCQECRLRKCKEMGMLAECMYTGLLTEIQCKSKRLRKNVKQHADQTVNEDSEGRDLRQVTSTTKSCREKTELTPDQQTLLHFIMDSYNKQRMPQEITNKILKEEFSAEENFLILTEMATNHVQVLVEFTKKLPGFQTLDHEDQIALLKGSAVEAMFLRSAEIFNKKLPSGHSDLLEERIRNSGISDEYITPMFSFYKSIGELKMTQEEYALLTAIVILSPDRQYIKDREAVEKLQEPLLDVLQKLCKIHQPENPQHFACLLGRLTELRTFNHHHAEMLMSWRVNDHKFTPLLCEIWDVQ
T1 sequence (P19793 1-462 partner): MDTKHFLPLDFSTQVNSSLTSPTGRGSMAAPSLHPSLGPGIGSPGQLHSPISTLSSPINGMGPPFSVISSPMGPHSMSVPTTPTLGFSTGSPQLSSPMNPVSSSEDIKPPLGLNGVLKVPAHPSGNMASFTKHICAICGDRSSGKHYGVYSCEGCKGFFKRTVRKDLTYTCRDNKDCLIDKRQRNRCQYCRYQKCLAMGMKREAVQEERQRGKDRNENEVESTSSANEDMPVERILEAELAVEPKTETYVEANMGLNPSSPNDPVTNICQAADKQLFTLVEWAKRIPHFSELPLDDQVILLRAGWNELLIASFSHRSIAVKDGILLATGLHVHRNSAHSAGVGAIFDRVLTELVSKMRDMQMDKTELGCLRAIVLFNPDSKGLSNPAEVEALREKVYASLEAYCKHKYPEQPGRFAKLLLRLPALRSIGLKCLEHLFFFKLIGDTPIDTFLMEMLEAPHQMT
As to the kind of experiment: In Vitro FXR Assay (TK): TK-ECRE-luc reporter in transfected CV-1 cells. The test is classed as cell-based. The following applies: 18 hrs incubation, luminescence. An outline of the steps:
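CV-1 cells transiently cotransfected with hFXR, hRXR, TK-ECRE-luc reporter and pCMX-YFP plasmids in charcoal-stripped serum medium. Serially diluted compounds added for 18 h at 37° C., then cells lysed and luciferase luminescence measured.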
`COc1ccc([C@H]2CC[C@H](CN(c3cccc(-c4cnn(C(C)C)c4)c3)C(=O)[C@H]3CC[C@H](OC(=O)NCC(C)(C)O)CC3)CC2)cc1C#N` [Compound 5.09, trans-4-((((trans)-4-(3-Cyano-4-methoxyphenyl)cyclohexyl)methyl)(3-(1-isopropyl-1H-pyrazol-4-yl)phenyl)carbamoyl) cyclohexyl(2-hydroxy-2-methylpropyl)carbamate]: the EC50 (in general, the concentration that produces a half-maximal response) is at most 0.05 µM. The same measure for `COc1ccc([C@H]2CC[C@H](CN(c3cc(-c4cnn(C(C)C)c4)ccn3)C(=O)[C@H]3CC[C@H](OC(=O)NC4COC4)CC3)CC2)cc1C` [Compound 2.51]: at most 0.05 µM. As for `COc1ccc([C@H]2CC[C@H](CN(c3cc(-c4coc(C5CC5)n4)ccn3)C(=O)[C@H]3CC[C@H](OC(=O)NCC(C)(C)O)CC3)CC2)cc1C` [Compound 2.02, trans-4-((4-(2-Cyclopropyloxazol-4-yl)pyridin-2-yl)((trans-4-(4-methoxy-3-methylphenyl)cyclohexyl)methyl)carbamoyl) cyclohexyl(2-hydroxy-2-methylpropyl)carbamate], the EC50 was at most 0.05 µM. As to `COc1ccc([C@H]2CC[C@H](CN(c3cc(-c4cnn(C(C)C)c4)ccn3)C(=O)[C@H]3CC[C@H](OC(=O)NCC(C)(C)CO)CC3)CC2)nc1C` [Compound 1.02, trans-4-((4-(1-Isopropyl-1H-pyrazol-4-yl)pyridin-2-yl) ((trans-4-(5-methoxy-6-methylpyridin-2-yl)cyclohexyl)methyl)carbamoyl) cyclohexyl (3-hydroxy-2,2-dimethylpropyl)carbamate], the EC50 was at most 0.05 µM. The figure for `COc1ccc(C23CCC(CN(c4cc(-c5cnc(C6CC6)s5)ccn4)C(=O)[C@H]4CC[C@H](OC(=O)N5CC(O)C5)CC4)(CC2)CC3)cc1C` [Compound 4.01, 4-((4-(2-Cyclopropylthiazol-5-yl)pyridin-2-yl)((4-(4-methoxy-3-methylphenyl)bicyclo[2.2.2]octan-1-yl)methyl)carbamoyl) cyclohexyl 3-hydroxyazetidine-trans-1-carboxylate] is at most 0.05 µM; for `COc1ccc(C23CCC(CN(c4cc(-c5cnn(C6(C)CCC6)c5)ccn4)C(=O)[C@H]4CC[C@H](OC(=O)N5CC(S(C)(=O)=O)C5)CC4)(CC2)CC3)cc1C` [Compound 25.19, 4-(((4-(4-Methoxy-3-methylphenyl)bicyclo[2.2.2]octan-1-yl)methyl)(4-(1-(1-methylcyclobutyl)-1H-pyrazol-4-yl)pyridin-2-yl)carbamoyl)(trans-cyclohexyl) 3-(methylsulfonyl)azetidine-1-carboxylate] it is at most 0.05 µM; for `COc1ccc(C23CCC(CN(c4cc(-c5cnn(C6CCSCC6)c5)ccn4)C(=O)[C@H]4CC[C@H](OC(=O)N5CC(O)C5)CC4)(CC2)CC3)cc1C` [Compound 26.21, 4-(((4-(4-Methoxy-3-methylphenyl)bicyclo[2.2.2]octan-1-yl)methyl)(4-(1-(tetrahydro-2H-thiopyran-4-yl)-1H-pyrazol-4-yl)pyridin-2-yl)carbamoyl)cyclohexyl trans-3-hydroxyazetidine-1-carboxylate] it is at most 0.05 µM. `COc1ccc(C23CCC(CN(c4cc(-c5cnn(C6(C)CCC6)c5)c(F)cn4)C(=O)[C@H]4CC[C@H](OC(=O)N5CC(O)C5)CC4)(CC2)CC3)cc1C` [Compound 25.18, 4-((5-Fluoro-4-(1-(1-methylcyclobutyl)-1H-pyrazol-4-yl)pyridin-2-yl)((4-(4-methoxy-3-methylphenyl)bicyclo[2.2.2]octan-1-yl)methyl)carbamoyl)cyclohexyl trans-3-hydroxyazetidine-1-carboxylate] showed an EC50 of at most 0.05 µM. The figure for `COCCOC(=O)N[C@H]1CC[C@H](C(=O)N(C[C@H]2CC[C@H](c3ccc(OC)c(C)c3)CC2)c2cccc(-c3cnn(C(C)C)c3)c2)CC1` [Compound 6.04, 2-Methoxyethyl (trans-4-((3-(1-isopropyl-1H-pyrazol-4-yl)phenyl)((trans-4-(4-methoxy-3-methylphenyl)cyclohexyl)meth-yl)carbamoyl)cyclohexyl)carbamate] is at most 0.05 µM; for `COc1ccc([C@H]2CC[C@H](CN(c3cc(-n4cnc(C5CC5)n4)ccn3)C(=O)[C@H]3CC[C@H](OC(=O)N4CC(O)C4)CC3)CC2)cc1C` [Compound 2.39, trans-4-((4-(3-Cyclopropyl-1H-1,2,4-triazol-1-yl)pyridin-2-yl)((trans-4-(4-methoxy-3-methylphenyl)cyclohexyl)methyl)carbamoyl)cyclohexyl 3-hydroxyazetidine-1-carboxylate] it is at most 0.05 µM; for `COc1ccc([C@H]2CC[C@H](CN(c3cc(-c4cnc(C(C)C)s4)ccn3)C(=O)[C@H]3CC[C@H](OC(=O)NC4COC4)CC3)CC2)cc1C` [Compound 2.55, trans-4-((4-(2-Isopropylthiazol-5-yl)pyridin-2-yl)(((trans)-4-(4-methoxy-3-methylphenyl)cyclohexyl)methyl)carbamoyl)cyclohexyl oxetan-3-ylcarbamate] it is at most 0.05 µM. Regarding `CCC1CN(C(=O)O[C@H]2CC[C@H](C(=O)N(CC34CCC(c5ccc(OC)c(C)c5)(CC3)CC4)c3cc(-c4cnn(C(C)C)c4)ccn3)CC2)C1` [Compound 4.54, 4-((4-(1-Isopropyl-1H-pyrazol-4-yl)pyridin-2-yl) ((4-(4-methoxy-3-methylphenyl)bicyclo [2.2.2]octan-1-yl)methyl)carbamoyl)cyclohexyl trans-3-ethylazetidine-1-carboxylate], the EC50 is at most 0.05 µM. The same measure for `CCc1nc(-c2ccnc(N(CC34CCC(c5ccc(OC)c(C)c5)(CC3)CC4)C(=O)[C@H]3CC[C@H](OC(=O)N4CC(O)C4)CC3)c2)co1` [Compound 4.22, 4-((4-(2-Ethyloxazol-4-yl)pyridin-2-yl)((4-(4-methoxy-3-methylphenyl)bicyclo[2.2.2]octan-1-yl)methyl)carbamoyl) cyclohexyl 3-hydroxyazetidine-trans-1-carboxylate]: at most 0.05 µM; for `COc1ccc(C23CCC(CN(c4cc(-c5cnc(C(C)C)s5)ccn4)C(=O)[C@H]4CC[C@H](OC(=O)NC5COC5)CC4)(CC2)CC3)cc1C` [Compound 4.35, 4-((4-(2-Isopropylthiazol-5-yl)pyridin-2-yl)((4-(4-methoxy-3-methylphenyl)bicyclo[2.2.2]octan-1-yl)methyl)carbamoyl)(trans-cyclohexyl) oxetan-3-ylcarbamate]: at most 0.05 µM.

With `COc1ccc(C23CCC(CN(c4cc(-c5cnn(C(C)C)c5)c(Cl)cn4)C(=O)[C@H]4CC[C@H](OC(=O)N5CC(O)C5)CC4)(CC2)CC3)cc1C` [Compound 26.01, 4-((5-Chloro-4-(1-isopropyl-1H-pyrazol-4-yl)pyridin-2-yl)((4-(4-methoxy-3-methylphenyl)bicyclo[2.2.2]octan-1-yl)methyl)carbamoyl)(trans-cyclohexyl) 3-hydroxyazetidine-1-carboxylate], the EC50 is at most 0.05 µM. As for `COc1ccc(C23CCC(CN(c4cccc(-n5cnc(C6CC6)c5)c4)C(=O)[C@H]4CC[C@H](OC(=O)N5CC(O)C5)CC4)(CC2)CC3)cc1C` [Compound 4.58, 4-((3-(4-Cyclopropyl-1H-imidazol-1-yl)phenyl) ((4-(4-methoxy-3-methylphenyl)bicyclo [2.2.2]octan-1-yl)methyl)carbamoyl)cyclohexyl trans-3-hydroxyazetidine-1-carboxylate], the EC50 is at most 0.05 µM.
